Results reported in patent US20250313535A1, “ALPHA 4 BETA 7 INTEGRIN MODULATORS AND USES THEREOF” (DICE MOLECULES SV, INC., priority 2022, published 2025).
Read-outs that look alike come from different tables or passages of the source.

Legend:
Type in all cases: cell-based
α4β7 integrin [1] = target: T1, α4β7 integrin (Homo sapiens (Human), UniProt P13612+P26010); assay: Integrin Adhesion Assay: Protocol 1 (MAdCAM-coated plate, RPMI-8866 cells, CellTiter GLO readout)
Method: α4β7 and α4β1 inhibition was evaluated in vitro using at least one of the following procedures:
Integrin Adhesion Assay: Protocol 1
MAdCAM (R&D Systems, 0.1 ug) was diluted in 50 μL PBS, added to each well of an opaque ELISA plate (Thermo), and incubated overnight at 4° C. Coated plates were washed once with PBS and then blocked with 200 μL of assay buffer (10 mM HEPES, 150 mM NaCl, 1 mM MnCl2, 0.1 mM CaCl2), 1% BSA) for 1 hour at 37° C. and 5% CO2. After incubation, buffer was aspirated from the plates and 50 μL of fresh assay buffer is added. Compounds were added by a compouns dispenser (Tecan) and DMSO concentration was normalized to 1% across each plate. 50 μL of RPMI-8866 cells (2×10^6 per mL) were added to each well and the plates were incubated for 1 hour at 37° C. and 5% CO2. After incubation, plates were allowed to cool to RT for 10 minutes before being washed four times in assay buffer by an automated plate washer (BioTek). After washing, 100 μL of a 1:1 mixture of assay buffer and CellTiter GLO 2.0 reagent (Promega) were added to each well. Plates were mixed for 2 minutes at 1000 rpm and then allowed to incubate an additional 10 minutes before reading out luminescence on a Tecan Spark plate reader. Raw data was converted to percent inhibition based on DMSO only and control compound wells, and curves were analyzed by 4-parameter fit within Dotmatics software.

α4β7 integrin [2] = target: T1, α4β7 integrin; assay: Integrin Adhesion Assay: Protocol 4 (MAdCAM-coated plate, RPMI-8866 cells with stable LOF mutation of the ITGB1 gene)
Procedure, shortened: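 RPMI-8866 cells with CRISPR/Cas9 knockout of ITGB1 (2×10^6/mL) were added to MAdCAM-coated wells with compound (1% DMSO) in HEPES/NaCl buffer with 1 mM MnCl2, 0.1 mM CaCl2 and 1% BSA, then incubated 1 h at 37 °C. After four washes, adherent cells were quantified by CellTiter-Glo luminescence. Percent inhibition versus DMSO and control compound was fitted to 4-parameter curves.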

α4β1 integrin = α4β1 integrin (Homo sapiens (Human), UniProt P05556+P13612); assay: Integrin Adhesion Assay: Protocol 5 (VCAM-coated plate, RPMI-8866 cells with stable LOF mutation of the ITGB7 gene)
Chain of α4β1 integrin (P13612 34-1032): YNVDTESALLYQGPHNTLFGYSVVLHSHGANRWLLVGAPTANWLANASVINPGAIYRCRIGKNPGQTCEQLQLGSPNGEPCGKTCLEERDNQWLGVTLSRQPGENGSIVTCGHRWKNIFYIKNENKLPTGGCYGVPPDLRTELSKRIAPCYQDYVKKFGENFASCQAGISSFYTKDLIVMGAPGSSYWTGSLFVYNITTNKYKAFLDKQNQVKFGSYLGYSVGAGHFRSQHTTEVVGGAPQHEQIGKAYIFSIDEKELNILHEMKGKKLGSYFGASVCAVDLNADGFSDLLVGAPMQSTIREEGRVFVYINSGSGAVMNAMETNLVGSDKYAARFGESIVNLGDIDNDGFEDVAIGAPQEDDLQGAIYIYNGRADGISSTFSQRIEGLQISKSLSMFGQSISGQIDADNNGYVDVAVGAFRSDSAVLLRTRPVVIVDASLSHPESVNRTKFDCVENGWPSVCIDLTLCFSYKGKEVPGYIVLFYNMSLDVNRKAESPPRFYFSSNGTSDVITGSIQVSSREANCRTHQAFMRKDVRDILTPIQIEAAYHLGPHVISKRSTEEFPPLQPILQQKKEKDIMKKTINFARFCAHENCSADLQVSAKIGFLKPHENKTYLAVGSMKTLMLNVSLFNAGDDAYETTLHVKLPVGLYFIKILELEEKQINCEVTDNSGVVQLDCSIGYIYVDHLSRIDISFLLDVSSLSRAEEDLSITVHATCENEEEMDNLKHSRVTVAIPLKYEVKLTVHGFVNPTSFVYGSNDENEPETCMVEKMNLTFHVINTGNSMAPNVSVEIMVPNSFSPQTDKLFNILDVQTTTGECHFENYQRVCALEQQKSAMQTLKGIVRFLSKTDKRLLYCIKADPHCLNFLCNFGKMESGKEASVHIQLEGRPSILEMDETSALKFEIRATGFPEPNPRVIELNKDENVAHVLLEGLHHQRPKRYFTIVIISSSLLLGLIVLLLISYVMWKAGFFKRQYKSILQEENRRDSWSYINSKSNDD
Chain of α4β1 integrin (P05556 21-798): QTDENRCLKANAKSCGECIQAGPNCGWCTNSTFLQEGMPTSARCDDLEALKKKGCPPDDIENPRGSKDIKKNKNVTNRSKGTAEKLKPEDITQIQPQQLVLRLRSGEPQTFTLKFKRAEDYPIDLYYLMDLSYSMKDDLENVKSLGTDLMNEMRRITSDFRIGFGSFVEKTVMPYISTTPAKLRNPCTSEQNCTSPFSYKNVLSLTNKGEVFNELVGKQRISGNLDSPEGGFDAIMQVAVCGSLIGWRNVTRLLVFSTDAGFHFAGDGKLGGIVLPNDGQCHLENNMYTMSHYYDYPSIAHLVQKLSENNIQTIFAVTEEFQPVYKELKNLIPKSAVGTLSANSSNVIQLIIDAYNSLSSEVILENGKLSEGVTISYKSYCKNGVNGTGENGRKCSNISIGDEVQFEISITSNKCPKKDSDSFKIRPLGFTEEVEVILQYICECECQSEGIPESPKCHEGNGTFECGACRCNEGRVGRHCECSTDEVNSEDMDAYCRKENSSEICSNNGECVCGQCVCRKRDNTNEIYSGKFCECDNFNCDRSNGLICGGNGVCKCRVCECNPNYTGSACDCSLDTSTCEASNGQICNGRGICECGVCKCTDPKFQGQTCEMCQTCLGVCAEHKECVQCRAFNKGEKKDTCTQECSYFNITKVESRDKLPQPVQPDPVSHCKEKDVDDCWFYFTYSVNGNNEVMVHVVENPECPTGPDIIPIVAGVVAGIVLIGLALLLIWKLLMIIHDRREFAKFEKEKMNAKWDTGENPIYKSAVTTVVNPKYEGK
Procedure, shortened: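 RPMI-8866 B cells with CRISPR/Cas9 ITGB7 knockout (clonal, verified by flow cytometry) adhered to VCAM-coated wells for 1 h at 37° C in HEPES/NaCl buffer with 1 mM MnCl2, 0.1 mM CaCl2, 1% BSA, 1% DMSO. Bound cells quantified by CellTiter-Glo luminescence after washing; % inhibition versus DMSO and control, 4-parameter fit.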

[3] = Protocol 4, RPMI-8866 cells with LOF mutation of ITGB1, MAdCAM, read-out: Mean IC50 α4β7 KO
[4] = Protocol 5, RPMI-8866 cells with LOF mutation of ITGB7, VCAM, read-out: Mean IC50 α4β1 KO
[5] = RPMI-8866 cells with stable LOF mutation of the ITGB1 gene, read-out: Mean IC50 α4β7 KO^a
[6] = RPMI-8866 cells with stable LOF mutation of the ITGB7 gene, read-out: Mean IC50 α4β1 KO^b

T1 sequence (P13612 34-1032): as the sequence (P13612 34-1032) above
T1 sequence (P26010 20-798): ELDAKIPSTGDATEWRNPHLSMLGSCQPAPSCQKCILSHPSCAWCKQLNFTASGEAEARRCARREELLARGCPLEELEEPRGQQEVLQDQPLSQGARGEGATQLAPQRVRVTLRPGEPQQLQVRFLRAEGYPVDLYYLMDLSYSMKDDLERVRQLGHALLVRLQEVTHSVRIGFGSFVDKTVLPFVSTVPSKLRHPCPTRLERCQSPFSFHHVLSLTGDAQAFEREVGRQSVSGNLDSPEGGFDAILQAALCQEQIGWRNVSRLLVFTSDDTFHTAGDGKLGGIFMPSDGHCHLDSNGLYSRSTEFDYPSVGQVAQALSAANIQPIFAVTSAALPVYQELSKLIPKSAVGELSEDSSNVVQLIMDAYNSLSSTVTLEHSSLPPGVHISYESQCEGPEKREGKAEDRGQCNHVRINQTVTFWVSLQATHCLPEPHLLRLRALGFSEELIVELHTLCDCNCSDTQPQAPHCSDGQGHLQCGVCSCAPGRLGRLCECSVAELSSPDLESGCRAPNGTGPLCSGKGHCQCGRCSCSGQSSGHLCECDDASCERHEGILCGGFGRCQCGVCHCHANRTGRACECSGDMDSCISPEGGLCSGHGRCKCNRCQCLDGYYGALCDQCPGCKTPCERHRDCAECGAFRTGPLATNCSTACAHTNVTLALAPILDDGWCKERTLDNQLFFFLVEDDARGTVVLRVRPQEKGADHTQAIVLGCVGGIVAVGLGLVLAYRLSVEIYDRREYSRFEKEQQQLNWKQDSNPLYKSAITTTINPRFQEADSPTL

Row | Compound | IC50 (α4β7 integrin [1]) | IC50 (α4β7 integrin [2]; [3]) | IC50 (α4β1 integrin; [4]) | IC50 (α4β7 integrin [2]; [5]) | IC50 (α4β1 integrin; [6])
1 | Cn1ccc(C(F)(F)F)c(-c2cccc3c(C[C@H](NC(=O)c4c(F)cc(N5CC(F)(F)OC(F)(F)C5)cc4F)C(=O)O)cccc23)c1=O [Compound 441] | 10 to 100 nM |  |  |  | 
2 | Cn1c(=O)c(-c2cccc3c(C[C@H](NC(=O)c4c(F)cc([C@H]5C[C@H](N(C)C)C5)cc4F)C(=O)O)cccc23)c(C(F)(F)F)c2ccccc21 [Compound 417] | > 1000 nM |  |  |  | 
3 | Cn1c(=O)c(-c2cccc3c(C[C@H](NC(=O)c4c(F)cc(C5CCCCC5)cc4F)C(=O)O)cccc23)c(C(F)(F)F)c2ccccc21 [Compound 376] | > 1000 nM |  |  |  | 
4 | CN1CCCC(c2cnc(-c3cccc4c(C[C@H](NC(=O)C5(C(F)(F)F)CCN(CC(F)(F)F)CC5)C(=O)O)cccc34)c(C(F)(F)F)c2)C1 (stereo partly shown) [Compound 758] |  | < 10 nM | 100 to 1000 nM |  | 
5 | CC1(C)CCN(Cc2ccc(-c3cccc4c(C[C@H](NC(=O)C5(C(F)(F)F)CCN(CC(F)(F)F)CC5)C(=O)O)cccc34)c3cnccc23)CC1 [Compound 986] |  | < 10 nM | 100 to 1000 nM |  | 
6 | O=C(O)[C@H](Cc1cccc2c(-c3ncc(CN4CCCC5(CC5)C4)c4ccccc34)cccc12)NC(=O)C1(C(F)(F)F)CCN(CC(F)(F)F)CC1 [Compound 904] |  | < 10 nM | 100 to 1000 nM |  | 
7 | O=C(O)[C@H](Cc1cccc2c(-c3ncc(CN4CCCC4)c4ccccc34)cccc12)NC(=O)C1(C(F)(F)F)CCN(CC(F)(F)F)CC1 [Compound 918] |  | < 10 nM | > 1000 nM |  | 
8 | O=C(O)[C@H](Cc1cccc2c(-c3nccc4ccc(CCCN5C6CCCC5CC6)cc34)cccc12)NC(=O)C1(C(F)(F)F)CCN(CC(F)(F)F)CC1 [Compound 744] |  | < 10 nM | > 1000 nM |  | 
9 | COc1ccc(CN2CCCCC2C)c(OC)c1-c1cccc2c(C[C@H](NC(=O)c3c(C)cccc3F)C(=O)O)cccc12 (stereo partly shown) [Compound 631] |  |  |  | < 10 nM | 100 to 1000 nM
10 | CC1(C)CCN(Cc2cccc3c(-c4cccc5c(C[C@H](NC(=O)C6(C(F)(F)F)CCN(CC(F)(F)F)CC6)C(=O)O)cccc45)nccc23)CC1 [Compound 561] |  |  |  | < 10 nM | > 1000 nM
11 | CN1CCCC1c1cc(-c2cccc3c(C[C@H](NC(=O)C4(C(F)(F)F)CCN(C5COC5)CC4)C(=O)O)cccc23)c2cnccc2c1 (stereo partly shown) [Compound 644] |  |  |  | < 10 nM | 100 to 1000 nM
12 | O=C(O)[C@H](Cc1cccc2c(-c3ncc(CN4CCC[C@H](F)C4)cc3C3CC3)cccc12)NC(=O)C1(C(F)(F)F)CCN(CC(F)F)CC1 [Compound 953] |  | < 10 nM | 100 to 1000 nM |  | 
13 | COc1c(CN2CCCCC2)ccc(Cl)c1-c1cccc2c(C[C@H](NC(=O)c3c(C)cccc3F)C(=O)O)cccc12 [Compound 1013] |  | < 10 nM | 100 to 1000 nM |  | 
14 | O=C(O)[C@H](Cc1cccc2c(-c3ncc(CN4CCOCC4)c4ccccc34)cccc12)NC(=O)C1(C(F)(F)F)CCN(CC(F)F)CC1 [Compound 878] |  | < 10 nM | 100 to 1000 nM |  | 
15 | Cc1cccc(F)c1C(=O)N[C@@H](Cc1cccc2c(-c3cccc4c3OCC4)cccc12)C(=O)O [Compound 1002] |  | 100 to 1000 nM | > 1000 nM |  | 
16 | COc1ccc(CN2CCC(C)CC2)c(OC)c1-c1cccc2c(C[C@H](NC(=O)c3c(C)cccc3F)C(=O)O)cccc12 [Compound 625] |  |  |  | < 10 nM | 100 to 1000 nM
17 | COc1ccc(CN2CCC(F)(F)CC2)c(OC)c1-c1cccc2c(C[C@H](NC(=O)C3(C(F)(F)F)CCN(C4COCC4(F)F)CC3)C(=O)O)cccc12 (single isomer, unassigned) [Compound 640] |  |  |  | 10 to 100 nM | > 1000 nM
18 | O=C(O)[C@H](Cc1cccc2c(-c3ncc(CN4CCC(F)CC4)c4ccccc34)cccc12)NC(=O)C1(C(F)(F)F)CCN(CC(F)(F)F)CC1 [Compound 871] |  | 10 to 100 nM | > 1000 nM |  | 

Row | Compound | IC50 (α4β7 integrin [1]) | IC50 (α4β7 integrin [2]; [3]) | IC50 (α4β1 integrin; [4]) | IC50 (α4β7 integrin [2]; [5]) | IC50 (α4β1 integrin; [6])
19 | COc1ccc(CN2CCC(F)(F)CC2)c(OC)c1-c1cccc2c(C[C@H](NC(=O)c3c(C)cc4cnn(CC(F)(F)F)c4c3F)C(=O)O)cccc12 [Compound 609] |  |  |  | 10 to 100 nM | 100 to 1000 nM
20 | CC1(C)CCCN(Cc2cnc(-c3cccc4c(C[C@H](NC(=O)C5(C(F)(F)F)CCN(CC(F)F)CC5)C(=O)O)cccc34)c3ccccc23)C1 [Compound 910] |  | < 10 nM | > 1000 nM |  | 
21 | C[C@@H]1CN(Cc2cnc(-c3cccc4c(C[C@H](NC(=O)C5(C(F)(F)F)CCN(CC(F)(F)F)CC5)C(=O)O)cccc34)c3ccccc23)C[C@H](C)N1 [Compound 893] |  | < 10 nM | 100 to 1000 nM |  | 
22 | Cc1c(CCN2CCC(F)(F)CC2)ccnc1-c1cccc2c(C[C@H](NC(=O)C3(C(F)(F)F)CCN(CC(F)(F)F)CC3)C(=O)O)cccc12 [Compound 716] |  | < 10 nM | > 1000 nM |  | 
23 | COc1ccc(CN2CCC(F)(F)CC2)c(OC)c1-c1cccc2c(C[C@H](NC(=O)C3(C(F)(F)F)CCN([C@@H]4COC[C@@H]4F)CC3)C(=O)O)cccc12 [Compound 668] |  |  |  | < 10 nM | > 1000 nM
24 | COc1ccc(CN2CCC(C(C)(C)C)CC2)c(OC)c1-c1cccc2c(C[C@H](NC(=O)C3(C(F)(F)F)CCN(CC(F)(F)F)CC3)C(=O)O)cccc12 [Compound 818] |  | < 10 nM | > 1000 nM |  | 
25 | O=C(O)[C@H](Cc1cccc2c(-c3ncc(CN4CCCCC4)cc3C3CC3)cccc12)NC(=O)C1(C(F)(F)F)CCN(CC(F)F)CC1 [Compound 898] |  | < 10 nM | > 1000 nM |  | 
26 | Cn1c(=O)c(-c2cccc3c(C[C@H](NC(=O)C4(C(F)(F)F)CCN([C@H]5CCOC5)CC4)C(=O)O)cccc23)c(C(F)(F)F)c2ccccc21 [Compound 457] |  |  |  | < 10 nM | 100 to 1000 nM
27 | COc1ccc(CN2CC(OC(C)(C)C)C2)c(OC)c1-c1cccc2c(C[C@H](NC(=O)C3(C(F)(F)F)CCN(CC(F)(F)F)CC3)C(=O)O)cccc12 [Compound 657] |  |  |  | < 10 nM | > 1000 nM
28 | COc1cccc(CN2CCCCC2)c1-c1cccc2c(C[C@H](NC(=O)c3c(C)cc(C4CC(F)(F)C4)cc3F)C(=O)O)cccc12 [Compound 544] |  |  |  | < 10 nM | 100 to 1000 nM
29 | COc1cccc(OCCN2CCCCC2)c1-c1cccc2c(C[C@H](NC(=O)c3c(C)cccc3F)C(=O)O)cccc12 [Compound 999] |  | < 10 nM | 100 to 1000 nM |  | 
30 | Cn1c(=O)c(-c2cccc3c(C[C@H](NC(=O)C4(C)CN(C5CCOC(C(F)(F)F)C5)C4)C(=O)O)cccc23)c(C(F)(F)F)c2ccccc21 (stereo partly shown) [Compound 506] |  |  |  | 100 to 1000 nM | > 1000 nM
31 | COc1c(CN(C)C)ccc(Cl)c1-c1cccc2c(C[C@H](NC(=O)c3c(C)cccc3F)C(=O)O)cccc12 [Compound 1011] |  | < 10 nM | > 1000 nM |  | 
32 | COc1ccc(CN2CCN(C)C(C)(C)C2)c(OC)c1-c1cccc2c(C[C@H](NC(=O)C3(C(F)(F)F)CCN(CC(F)(F)F)CC3)C(=O)O)cccc12 [Compound 810] |  | < 10 nM | 100 to 1000 nM |  | 
33 | COc1ccc(CN2CCC(F)(F)CC2)nc1-c1cccc2c(C[C@H](NC(=O)c3c(C)cccc3F)C(=O)O)cccc12 [Compound 600] |  |  |  | 10 to 100 nM | > 1000 nM
34 | COC(=O)[C@H](Cc1cccc2c(-c3nccc4cc(CCN(C)C)ccc34)cccc12)NC(=O)OC(C)(C)C [Compound 471] |  |  |  | < 10 nM | 100 to 1000 nM
35 | COc1ccc(CN(C)C)nc1-c1cccc2c(C[C@H](NC(=O)c3c(C)cccc3F)C(=O)O)cccc12 [Compound 599] |  |  |  | < 10 nM | 100 to 1000 nM
